Data published in PubChem BioAssay (NCI).
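Method: 48-hour compound exposure of cells in 96-well plates, five concentrations, linear interpolation of endpoints. TGI denotes the concentration required for complete inhibition of growth.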

System: MDA-N
Test: inhibition of tumour cell growth, NCI panel, 48 h

Going from `CC(C)=C[C@H]1C[C@H](C)[C@H]2CC[C@H](C)c3c2c1c(C)c1ncoc31` to `CCOC(=O)c1ccc(-c2cc(C)no2)[nH]1`, the TGI rises from 34.2 µM to over 100 µM.

`O=C1/C(=C\c2ccc(Cl)cc2Cl)Sc2scc(-c3ccc(O)c(O)c3)[n+]21` gave a TGI of 60.1 µM.

System: LXFL 529 NSCLC
Test: inhibition of tumour cell growth, NCI panel, 48 h

`CCNC(=O)c1ccc(C)c(N=NN(C)C)c1` and `N#Cc1cccc(-n2[nH]c(=O)ccc2=O)c1` cannot be ordered by TGI: over 100 µM for the first, over 100 µM for the second.

System: NCI-H226 lung
Test: inhibition of tumour cell growth, NCI panel, 48 h

`CCCCCCc1cc2cc(-c3cn4ccsc4n3)c(=O)oc2cc1O` and `CCN(CC)CCCNC(=O)c1cc(-c2nccn2C)nc2ccccc12` cannot be ordered by TGI: over 100 µM for the first, over 100 µM for the second.

Going from `N#CSC#CCCC#CSC#N` to `C=CCNC(=S)N/C=C(\C#N)C(N)=O`, the TGI rises from 58.2 µM to over 100 µM.

`O=C(O)C1C2c3ccccc3C(c3ccccc32)C1C(=O)NCC1CC1` (centres undefined) and `O=C(C(=O)n1ccc2ccccc21)n1ccc2ccccc21` cannot be ordered by TGI: over 100 µM for the first, over 100 µM for the second.

First: COC(=O)[C@]1(C)CCC[C@@]2(C)C1CC[C@@]13C=C(C(C)C)[C@@H](CC1=O)CC23 (some centres undefined)
Second: CCOC(=O)C12OC(OCC)(CC1(OCC)OCC)C1(CC1)C2=O (centres undefined)
The TGI of the first is lower: 39 µM for the first, over 100 µM for the second.

`O=c1c(F)cn(Cc2c(Cl)cccc2Cl)c(=O)n1Cc1c(Cl)cccc1Cl` and `O=C1c2sc(-c3ccc(Cl)cc3)cc2-n2cccc21` cannot be ordered by TGI: over 100 µM for the first, over 100 µM for the second.

`O=c1[nH]c(=O)n(C2COC(CO)C2O)cc1F` (centres undefined) and `O=c1[nH]c(=O)c2c3n(cc2[nH]1)CCCCC3` cannot be ordered by TGI: over 100 µM for the first, over 100 µM for the second.

Going from `O=[N+]([O-])c1ccc2nc(Nc3ccccc3)c(Nc3ccccc3)nc2c1` to `O=C1SC(SCc2ccccc2)=NC12CC2c1ccccc1` (centres undefined), the TGI rises from 5.1 µM to 52 µM (10-fold).

`COc1ccc(C2=CC(C(C)=C(C(N)=O)C(N)=O)C=C(c3ccc(Br)cc3)C2)c(OC)c1` (centres undefined) and `COc1ccc(C(C)NNC(=O)c2ccncc2)cc1OC` (centres undefined) cannot be ordered by TGI: over 100 µM for the first, over 100 µM for the second.

Going from `CC(C)(CN1CCCCC1)C(/C=C/c1ccc(Cl)cc1)=N\NC(=O)N/N=C(/C=C/c1ccc(Cl)cc1)C(C)(C)CN1CCCCC1` to `C[N+]12C=CC=C1C(N1CCCC1)c1scc(-c3ccc(Br)cc3)c12` (centres undefined), the TGI rises from 16.4 µM to over 100 µM.

`NC(Cc1ccccc1)C(=O)NC(Cc1ccccc1)NC(=O)C(Cc1c[nH]c2ccccc12)C(=O)O` (centres undefined) and `O=C1NC2(CCN(CCc3ccccc3)CC2)Oc2ccccc21` cannot be ordered by TGI: over 100 µM for the first, over 100 µM for the second.

Compared with `CC(=O)CC1CCC(=O)/C=C/C(=O)OC(CC(C)=O)CCC(=O)/C=C/C(=O)O1` (centres undefined), `CC(C)=C[C@H]1C[C@H](C)[C@H]2CC[C@H](C)c3c2c1c(C)c1ncoc31` is 1.8-fold lower in TGI: 61.3 µM for the first, 33.2 µM for the second.

`CC(C)C(NC(=O)Oc1ccccc1)C(=O)NC1c2c(Br)sc(Br)c2C(=O)C1O` (centres undefined) and `COC(=O)c1cccc(C)c1C1CN=NC12Cc1cc(C)cc(C)c1C2=O` (centres undefined) cannot be ordered by TGI: over 25 µM for the first, over 100 µM for the second.

`Nc1ncc2c(n1)-c1ccccc1OC2N1CCCCC1` (centres undefined) and `O=C1c2ccccc2-n2nnnc2C2CSCN12` (centres undefined) cannot be ordered by TGI: over 100 µM for the first, over 100 µM for the second.

First: Cc1ccc(S(=O)(=O)N2C3C=CC(C3)[C@@H]2C(Cl)(Cl)Cl)cc1 (some centres undefined)
Second: N#Cc1cccc(-n2[nH]c(=O)ccc2=O)c1
The TGI of the first is lower: 60.9 µM for the first, over 100 µM for the second.

Compared with `COCOC1/C=C/CCCCC(=O)C(C)C#CC1` (centres undefined), `CCOC(=O)CCC(NC(=O)C(N)Cc1ccc(N(CCCl)CCCl)cc1)C(=O)OCC` (centres undefined) is 1.7-fold lower in TGI: 35.3 µM for the first, 20.7 µM for the second.

Going from `C[C@]12c3c4cc(NC(=O)C(=O)NCc5ccc(-c6ccccn6)nc5)cc3Oc3cc(NC(=O)C(=O)NCc5ccc(-c6ccccn6)nc5)cc(c31)OC1C=C(NC(=O)C(=O)NCc3ccc(-c5ccccn5)nc3)C=C(O4)C12` (some centres undefined) to `COc1ccc(C(SCCO)(c2ccccc2)c2ccc(OC)cc2)cc1`, the TGI falls from over 100 µM to 28.6 µM.

Compared with `C/C(=N\NC(N)=S)c1ccc2c(c1)Sc1ccccc1O2`, `O=C1/C(=C\c2ccc(Cl)cc2Cl)Sc2scc(-c3ccc(O)c(O)c3)[n+]21` is lower in TGI: over 100 µM for the first, 35.4 µM for the second.

`CC(N)/C(N)=N/O` (centres undefined) and `CCOC(=O)c1ccc(-c2cc(C)no2)[nH]1` cannot be ordered by TGI: over 100 µM for the first, over 100 µM for the second.

`COc1ccccc1CC(=O)C(O)(C(F)(F)F)C(F)(F)F` and `COc1ccc2oc3c(C)cc4c(OC)nnc(OC)c4c3c2c1` cannot be ordered by TGI: over 100 µM for the first, over 100 µM for the second.

System: UACC-257 melanoma
Test: inhibition of tumour cell growth, NCI panel, 48 h

`CCCCCCc1cc2cc(-c3cn4ccsc4n3)c(=O)oc2cc1O` and `O=c1c(F)cn(Cc2c(Cl)cccc2Cl)c(=O)n1Cc1c(Cl)cccc1Cl` cannot be ordered by TGI: over 100 µM for the first, over 31.6 µM for the second.

Going from `N#CSC#CCCC#CSC#N` to `C=CCNC(=S)N/C=C(\C#N)C(N)=O`, the TGI rises from 32.2 µM to over 100 µM.

Compared with `O=C(O)C1C2c3ccccc3C(c3ccccc32)C1C(=O)NCC1CC1` (centres undefined), `O=[N+]([O-])c1ccc2nc(Nc3ccccc3)c(Nc3ccccc3)nc2c1` is 14-fold lower in TGI: 70.5 µM for the first, 5.1 µM for the second.

First: COC(=O)[C@]1(C)CCC[C@@]2(C)C1CC[C@@]13C=C(C(C)C)[C@@H](CC1=O)CC23 (some centres undefined)
Second: CC(C)(CN1CCCCC1)C(/C=C/c1ccc(Cl)cc1)=N\NC(=O)N/N=C(/C=C/c1ccc(Cl)cc1)C(C)(C)CN1CCCCC1
The TGI of the first is 3.6-fold higher: 62.4 µM for the first, 17.1 µM for the second.

`CCNC(=O)c1ccc(C)c(N=NN(C)C)c1` and `COc1ccc(C2=CC(C(C)=C(C(N)=O)C(N)=O)C=C(c3ccc(Br)cc3)C2)c(OC)c1` (centres undefined) cannot be ordered by TGI: over 100 µM for the first, over 100 µM for the second.

For `O=c1[nH]c(=O)n(C2COC(CO)C2O)cc1F` (centres undefined), the TGI was over 100 µM.
